In PubChem BioAssay (NCI) one finds TGI data, which are given here for seven molecules.

Among the test systems are MALME-3M melanoma; OVCAR-5 ovarian; MCF7 breast; M14 melanoma; PC-3 prostate; OVCAR-3 ovarian; HCT-116 colon; MDA-MB-231 breast; SF-539 CNS; NCI-H23 lung; NCI-H460 lung; NCI-H522 lung; UACC-62 melanoma; CAKI-1 renal; SNB-19 CNS; MDA-N; HCC-2998 colon; T-47D breast; MOLT-4 leukemia; SR leukemia.
Experiment in all cases: NCI anticancer screen, dose series, 48 h

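Following 48 hours of exposure in 96-well plates, responses at five concentrations were used to interpolate endpoints linearly. TGI is the concentration that stops growth completely.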

In the case of `CC(=O)Nc1sc([N+](=O)[O-])cc1S(=O)(=O)c1ccc(Cl)cc1`, the TGI with MALME-3M melanoma is 15.3 µM; with OVCAR-5 ovarian it was over 100 µM; in the test with MCF7 breast, 9.41 µM; in the test with M14 melanoma, 9.79 µM; with PC-3 prostate, 10.6 µM; with OVCAR-3 ovarian, 16.1 µM. Besides, the TGI with HCT-116 colon was 19.8 µM; in the test with MDA-MB-231 breast, over 29.6 µM; with SF-539 CNS, 10.2 µM; with NCI-H23 lung, 14.1 µM; in the test with NCI-H460 lung it was 10.2 µM; with NCI-H522 lung it was 11 µM. For the same molecule, the TGI in the test with UACC-62 melanoma was 22.4 µM; in the test with CAKI-1 renal, over 20.8 µM; in the test on SNB-19 CNS it was over 100 µM; in the test with MDA-N, over 100 µM; in the test with HCC-2998 colon, 8.64 µM; in the test on T-47D breast, 12.2 µM. The TGI in the test on MOLT-4 leukemia is over 50.2 µM.

As to `CCC(=O)N1NC(=O)C(CC)(CC)C1=O`, the TGI in the test on OVCAR-5 ovarian, in the test with MCF7 breast, in the test with M14 melanoma, in the test with PC-3 prostate, in the test with OVCAR-3 ovarian and with HCT-116 colon was over 100 µM in each case. Moreover, the TGI in the test on MDA-MB-231 breast, in the test on NCI-H23 lung, with NCI-H460 lung, with NCI-H522 lung, in the test with UACC-62 melanoma and in the test with CAKI-1 renal was over 100 µM in each case. Further, the TGI with SNB-19 CNS, in the test with MDA-N, in the test on HCC-2998 colon, with T-47D breast, with SR leukemia and in the test on MOLT-4 leukemia was over 100 µM in each case.

Regarding `Cc1ccc2nc(-c3ccc(-n4c(C)nc(=O)c(-c5ccc(F)cc5)c4C)cc3)sc2c1`, the TGI turned out to be 32.5 µM in the test on MALME-3M melanoma; 35.9 µM in the test with OVCAR-5 ovarian; 34.7 µM in the test with MCF7 breast; 26.4 µM in the test on M14 melanoma; 25.1 µM in the test with PC-3 prostate; 28.4 µM with OVCAR-3 ovarian. The TGI in the test with HCT-116 colon came out at 29.4 µM; in the test on MDA-MB-231 breast, 28.8 µM; in the test with NCI-H23 lung it was 32.2 µM; with NCI-H522 lung it was 35.2 µM; in the test on CAKI-1 renal, 35.1 µM; with SNB-19 CNS it was 29.5 µM. The TGI came to 32.2 µM in the test with MDA-N, 17.2 µM with T-47D breast, 29.5 µM in the test on SR leukemia and 27.7 µM with MOLT-4 leukemia.

Turning to `CO/N=C(/C(=O)N(C(=O)/C(=N/OC)c1csc(NC(c2ccccc2)(c2ccccc2)c2ccccc2)n1)n1cnn(CC(=O)OC(C)(C)C)c1=O)c1csc(NC(c2ccccc2)(c2ccccc2)c2ccccc2)n1`, the TGI in the test on MALME-3M melanoma was over 10 µM; in the test on OVCAR-5 ovarian, over 10 µM; with MCF7 breast, over 10 µM; in the test on M14 melanoma it was over 10 µM; with PC-3 prostate, 3.44 µM; in the test on OVCAR-3 ovarian, over 10 µM. Also, the TGI with HCT-116 colon, in the test on MDA-MB-231 breast, with SF-539 CNS, in the test with NCI-H23 lung, in the test with NCI-H460 lung and in the test with NCI-H522 lung was over 10 µM in each case. The TGI with UACC-62 melanoma, with CAKI-1 renal, in the test on SNB-19 CNS, with MDA-N, in the test with HCC-2998 colon and with T-47D breast was over 10 µM each time. In the test with MOLT-4 leukemia, this molecule yielded a TGI of over 10 µM.

On to `O=C1C(Cl)=C(N2C(=O)CCCC2=O)C(=O)c2ccccc21`, for which the TGI in the test with OVCAR-5 ovarian was 38.1 µM; in the test with MCF7 breast, 52.1 µM; in the test on M14 melanoma, 37.5 µM; in the test with PC-3 prostate, 41.7 µM; with OVCAR-3 ovarian it was over 100 µM; in the test on HCT-116 colon, 32 µM. In addition, the TGI was determined as 50.5 µM with MDA-MB-231 breast; 38 µM in the test on SF-539 CNS; 36 µM with NCI-H23 lung; 27.8 µM in the test with NCI-H460 lung; 4.53 µM in the test on NCI-H522 lung; 37.4 µM in the test on UACC-62 melanoma. Besides, the TGI is 27.2 µM with CAKI-1 renal; 31 µM in the test with MDA-N; 31.4 µM in the test on HCC-2998 colon; 95.7 µM in the test on T-47D breast; 57.1 µM in the test with SR leukemia; 55.6 µM in the test on MOLT-4 leukemia.

`O=C1/C(=C/c2ccc(Cl)cc2)N=C(c2ccccc2)N1c1nc2ccccc2s1`: the TGI in the test with OVCAR-5 ovarian, in the test with MCF7 breast, with M14 melanoma, with PC-3 prostate, in the test with OVCAR-3 ovarian and with HCT-116 colon was over 100 µM throughout. Also, the TGI is over 100 µM in the test on MDA-MB-231 breast; over 100 µM with SF-539 CNS; over 100 µM in the test on NCI-H23 lung; over 100 µM with NCI-H460 lung; 75.1 µM in the test with NCI-H522 lung; over 100 µM in the test on CAKI-1 renal. Moreover, the TGI was over 100 µM in the test with MDA-N; over 100 µM in the test with HCC-2998 colon; over 100 µM in the test on T-47D breast; over 100 µM in the test on SR leukemia; 57.7 µM in the test with MOLT-4 leukemia.

With `C=CCCCC1SC2=C(CC)CCCN2C1=O` (stereo not given), the TGI in the test with MALME-3M melanoma, in the test on OVCAR-5 ovarian, in the test with MCF7 breast, in the test with M14 melanoma, in the test on PC-3 prostate and with OVCAR-3 ovarian was over 100 µM in each case. Moreover, the TGI in the test with HCT-116 colon, in the test on MDA-MB-231 breast, in the test with SF-539 CNS, in the test with NCI-H23 lung, in the test with NCI-H522 lung and in the test on UACC-62 melanoma was over 100 µM each time. The TGI in the test with CAKI-1 renal, in the test with SNB-19 CNS, in the test on MDA-N, in the test on T-47D breast, with SR leukemia and in the test with MOLT-4 leukemia was over 100 µM in each case.
